# Test results published in patent US20190365710A1, “METHODS OF TREATING CANCER” (GlaxoSmithKline Intellectual Property Development Limited, priority 2016, published 2019).
# Tested on: AML cell lines
# Assay: Methylscan proteomic evaluation of arginine methylation
# Assay type: cell-based
# Settings: AML cell lines treated with the tool compound vs DMSO
# Source text: FIG. 3: Methylscan evaluation of cell lines treated with Compound D. Percent of proteins with methylation changes (independent of directionality of change) are categorized by functional group as indicated.
# To identify putative PRMT1 substrates, a proteomic approach (Methylscan, Cell Signaling Technology) was utilized to identify proteins with changes in arginine methylation states in response to a tool PRMT1 inhibitor, Compound D. Protein fragments from Compound D- and DSMO-treated cell extracts were immunoprecipitated using methyl arginine specific antibodies (ADMA, MMA, SDMA), and peptides were identified by mass spectrometry.
compound,measurement,value
CNCCN(C)Cc1c[nH]nc1[C@H]1CC[C@@]2(CC1)CC(C)(C)CO2 [Compound D],proteins with changes in arginine methylation states (Methylscan),the majority of substrates identified were transcriptional regulators and RNA processing proteins
